What was measured:
Experiment in all cases: relative viability (nuclei count vs DMSO), 5 days (fraction); higher = more cells survive
[1] = compound: Cc1ccc2nc(NCCN)c3ncc(C)n3c2c1 + N=C(N)NC(=N)NCCc1ccccc1 [Phenformin] (partner 250 µM)
In short: (§1)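 Relative viability was taken as the ratio of nuclei in treated wells to nuclei in vehicle wells. Lung cancer cell lines in 1536-well plates received compounds by pin tool one day after seeding, either one drug alone or a fixed anchor-drug dose plus five library-drug doses (not always all listed) in √10 steps. Nuclei were counted on 4× images after 5 days of treatment, and values are medians of duplicate plates.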

Salubrinal + Palbociclib = compound: O=C(/C=C/c1ccccc1)NC(NC(=S)Nc1cccc2cccnc12)C(Cl)(Cl)Cl [Salubrinal] + CC(=O)c1c(C)c2cnc(Nc3ccc(N4CCNCC4)cn3)nc2n(C2CCCC2)c1=O [Palbociclib] (partner 0.5 µM)
In short: as §1

Salubrinal + Luminespib = compound: O=C(/C=C/c1ccccc1)NC(NC(=S)Nc1cccc2cccnc12)C(Cl)(Cl)Cl [Salubrinal] + CCNC(=O)c1noc(-c2cc(C(C)C)c(O)cc2O)c1-c1ccc(CN2CCOCC2)cc1 [Luminespib] (partner 0.01 µM)
In short: as §1

Salubrinal + OSI-027 = compound: O=C(/C=C/c1ccccc1)NC(NC(=S)Nc1cccc2cccnc12)C(Cl)(Cl)Cl [Salubrinal] + COc1cccc2cc(-c3nc([C@H]4CC[C@H](C(=O)O)CC4)n4ncnc(N)c34)[nH]c12 [OSI-027] (partner 0.5 µM)
In short: as §1

UMC-11
relative viability ([1]; first compound 0.04 µM): 0.352
relative viability ([1]; first compound 0.1265 µM): 0.319
relative viability ([1]; first compound 0.4 µM): 0.333
relative viability ([1]; first compound 1.265 µM): 0.335
relative viability ([1]; first compound 4 µM): 0.349
relative viability (Salubrinal + Palbociclib; first compound 0.08 µM): 0.304
relative viability (Salubrinal + Palbociclib; first compound 0.253 µM): 0.344
relative viability (Salubrinal + Palbociclib; first compound 0.8 µM): 0.349
relative viability (Salubrinal + Palbociclib; first compound 2.53 µM): 0.313
relative viability (Salubrinal + Palbociclib; first compound 8 µM): 0.299
relative viability (Salubrinal + Luminespib; first compound 0.08 µM): 1.06
relative viability (Salubrinal + Luminespib; first compound 0.253 µM): 0.835
relative viability (Salubrinal + Luminespib; first compound 0.8 µM): 1.14
relative viability (Salubrinal + Luminespib; first compound 2.53 µM): 1.05
relative viability (Salubrinal + Luminespib; first compound 8 µM): 1.14
relative viability (Salubrinal + OSI-027; first compound 0.08 µM): 0.498
relative viability (Salubrinal + OSI-027; first compound 0.253 µM): 0.399
relative viability (Salubrinal + OSI-027; first compound 0.8 µM): 0.548
relative viability (Salubrinal + OSI-027; first compound 2.53 µM): 0.46
relative viability (Salubrinal + OSI-027; first compound 8 µM): 0.455
